For data set [1] the following is noted: for surface tension liquid-gas: Wilhelmy plate method; for viscosity: 101.3 kPa, Liquid, Concentric cylinders viscometry.
A short description of data set [2]: refractive index (Na D-line) (dimensionless). The note with it: 293.15 K; 101.33 kPa; Liquid; Standard Abbe refractometry.
Data set [3] can be described thus: xn = mol fraction of the nth substance listed. The note with it: x1 = 1; for surface tension liquid-gas: Wilhelmy plate method; for viscosity: 101.3 kPa, Liquid, Concentric cylinders viscometry.

± gives the expanded uncertainty stated by the source.

The surface tension liquid-gas is the work needed to enlarge the surface of a liquid by unit area. Usually viscosity stands for the resistance of a fluid to flow. What is called refractive index is a measure of how strongly the sample bends light. Regarding `CN(C)C=O` [dimethylformamide], the surface tension liquid-gas in data set [1] (298.15 K) was 35.2 ± 0.5 mN/m; in data set [1] (303.15 K), 34.1 ± 0.5 mN/m; in data set [1] (308.15 K), 33 ± 0.5 mN/m; in data set [1] (313.15 K), 32 ± 0.5 mN/m. Moreover, the viscosity in data set [1] (298.15 K) was determined as 0.8162 ± 0.017 mPa·s; in data set [1] (303.15 K) it was 0.7678 ± 0.016 mPa·s; in data set [1] (308.15 K), 0.7262 ± 0.016 mPa·s; in data set [1] (313.15 K), 0.678 ± 0.015 mPa·s. Moreover, the refractive index in data set [2] is reported as 1.429 ± 0.001.

As to `CN(C)C=O` [dimethylformamide] + CCCCCCCCO, the surface tension liquid-gas in data set [3] (298.15 K) was 35.2 ± 0.5 mN/m; in data set [3] (303.15 K), 34.1 ± 0.5 mN/m; in data set [3] (308.15 K) it was 33 ± 0.5 mN/m; in data set [3] (313.15 K), 32 ± 0.5 mN/m. Also, the viscosity in data set [3] (298.15 K) was 0.8162 ± 0.017 mPa·s; in data set [3] (303.15 K), 0.7678 ± 0.016 mPa·s; in data set [3] (308.15 K), 0.7262 ± 0.016 mPa·s; in data set [3] (313.15 K) it was 0.678 ± 0.015 mPa·s.

With `CCCCCCCCCCO` [decan-1-ol], the surface tension liquid-gas was 28.35 ± 0.52 mN/m in data set [1] (298.15 K), 27.29 ± 0.52 mN/m in data set [1] (303.15 K), 26.23 ± 0.52 mN/m in data set [1] (308.15 K) and 25.17 ± 0.52 mN/m in data set [1] (313.15 K). Besides, the viscosity in data set [1] (298.15 K) came out at 11.83 ± 0.25 mPa·s; in data set [1] (303.15 K), 9.754 ± 0.2 mPa·s; in data set [1] (308.15 K) it was 8.135 ± 0.17 mPa·s; in data set [1] (313.15 K), 6.842 ± 0.14 mPa·s. For the same compound, the refractive index in data set [2] was found to be 1.437 ± 0.001.

As for `CCCCCCCCO` [octan-1-ol], the surface tension liquid-gas in data set [1] (298.15 K) amounted to 27.47 ± 0.52 mN/m; in data set [1] (303.15 K), 26.42 ± 0.52 mN/m; in data set [1] (308.15 K) it was 25.41 ± 0.52 mN/m; in data set [1] (313.15 K), 24.38 ± 0.52 mN/m. Further, the viscosity came to 7.661 ± 0.16 mPa·s in data set [1] (298.15 K), 6.402 ± 0.13 mPa·s in data set [1] (303.15 K), 5.425 ± 0.11 mPa·s in data set [1] (308.15 K) and 4.628 ± 0.097 mPa·s in data set [1] (313.15 K). The refractive index in data set [2] is 1.429 ± 0.001.

Take `CN(C)C=O` [dimethylformamide] + CCCCCCCCCCO: the surface tension liquid-gas in data set [3] (298.15 K) was 35.2 ± 0.5 mN/m; in data set [3] (303.15 K) it was 34.1 ± 0.5 mN/m; in data set [3] (308.15 K), 33 ± 0.5 mN/m; in data set [3] (313.15 K) it was 32 ± 0.5 mN/m. Besides, the viscosity in data set [3] (298.15 K) came to 0.8162 ± 0.017 mPa·s; in data set [3] (303.15 K), 0.7678 ± 0.016 mPa·s; in data set [3] (308.15 K), 0.7262 ± 0.016 mPa·s; in data set [3] (313.15 K), 0.678 ± 0.015 mPa·s.

For `CN(C)C=O` [dimethylformamide] + CCCCCCCCCO, the surface tension liquid-gas is 35.2 ± 0.5 mN/m in data set [3] (298.15 K), 34.1 ± 0.5 mN/m in data set [3] (303.15 K), 33 ± 0.5 mN/m in data set [3] (308.15 K) and 32 ± 0.5 mN/m in data set [3] (313.15 K). In addition, the viscosity is 0.8162 ± 0.017 mPa·s in data set [3] (298.15 K), 0.7678 ± 0.016 mPa·s in data set [3] (303.15 K), 0.7262 ± 0.016 mPa·s in data set [3] (308.15 K) and 0.678 ± 0.015 mPa·s in data set [3] (313.15 K).

Regarding `CCCCCCCCCO` [nonan-1-ol], the surface tension liquid-gas is 27.58 ± 0.57 mN/m in data set [1] (298.15 K), 26.53 ± 0.57 mN/m in data set [1] (303.15 K), 25.49 ± 0.56 mN/m in data set [1] (308.15 K) and 24.44 ± 0.56 mN/m in data set [1] (313.15 K). Moreover, the viscosity was 9.715 ± 0.22 mPa·s in data set [1] (298.15 K), 7.927 ± 0.18 mPa·s in data set [1] (303.15 K), 6.664 ± 0.15 mPa·s in data set [1] (308.15 K) and 5.645 ± 0.13 mPa·s in data set [1] (313.15 K). Also, the refractive index in data set [2] is 1.433 ± 0.001.

Values taken from the NIST ThermoML archive (doi:10.1016/j.jct.2014.03.022).
